Patent US10457677B2 (priority 2015, dated 2019)
Like-named read-outs stand apart in the source and are kept apart here.

Legend:
[1] = molecular target: purified human recombinant ATM (ataxia telangiectasia mutated), full length (Homo sapiens (Human), UniProt Q13315); experiment: ATM kinase assay - determination of ATM inhibition (IC50 ATM), TR-FRET; type: biochemical
How it was run: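 Full-length enzyme, expressed in a mammalian cell line, pre-incubated 15 min with inhibitor in 25 mM HEPES pH 8.0, 10 mM Mg(CH3COO)2, 1 mM MnCl2, 0,1% BSA, 0,01% Brij 35, 5 mM DTT. Full-length cmyc-p53 (Sf21-expressed) and ATP then added, 30-35 min at 22° C. EDTA stop; p53 S15 phosphorylation read by TR-FRET antibodies.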

PI3K p110δ/p85α (human) = PI3K p110δ/p85α (human) (Homo sapiens (Human), UniProt O00329); experiment: PI3K p110δ/p85α (human), non-radioactive assay (HTRF); type: biochemical; conditions: for IC50: read-out: IC50 (PI3Kdelta); for ratio IC50 (ATM) vs PI3Kdelta, selectivity with respect to PI3Kdelta: as printed:
Method: PI3K p110δ/p85α (Human), Non-radioactive Assay
(§1) PI3K p110δ/p85α (human) was incubated in an assay buffer comprising 10 μM phosphati-dylinositol 4,5-bisphosphate and MgATP (concentration as necessary). The reaction was initiated by addition of MgATP solution. After an incubation time of 30 min at room temperature, the reaction was stopped by addition of a solution consisting of EDTA and biotinylated phosphatidylinositol 3,4,5-trisphosphate. Finally, the detection buffer, consisting of a europium-labelled anti-GST monoclonal antibody, a GST-labelled GRP1 PH domain and streptavidin allophycocyanin, was added. The plate was read out via homogeneous time-resolved fluorescence (HTRF) and the corresponding signals were evaluated via the formula HTRF=10000×(Em665nm/Em620nm).

PI3K (p120γ) (human) = PI3K (p120γ) (human) (Homo sapiens (Human), UniProt P48736); experiment: PI3K (p120γ) (human), non-radioactive assay (HTRF); type: biochemical; conditions: for IC50: read-out: IC50 (PI3Kgamma); for ratio IC50 (ATM) vs PI3Kgamma, selectivity with respect to PI3Kgamma: as printed:
Method: PI3K (p120γ) (Human), Non-radioactive Assay
as §1, with “(p120γ)” for “p110δ/p85α”, “HTRF=10000×(Em665nm/Em620nm). • MgATP=magnesium 5′-O—[hydroxy({[(hydroxyphosphinato)oxy]phosphinato}oxy)phosphoryl]adenosine • MgCl2=magnesium dichloride • EGTA=ethylene glycol bis(aminoethyl ether) N,N,N′,N′-tetraacetic acid • Tween 20=polysorbate 20 Medicament/pharmaceutical Composition” for “HTRF=10000×(Em665nm/Em620nm).”

mTOR (human) = mTOR (human) (Homo sapiens (Human), UniProt P42345); experiment: mTOR (human) kinase assay, [γ-33P-ATP] filter assay; type: biochemical; conditions: for ratio IC50 (ATM) : IC50 (mTOR), selectivity with respect to mTOR: as printed:
Method: Furthermore, the effect, in particular inhibition, of other kinases and thus the selectivity of the compounds according to the invention can be determined with the aid of the following assay:
mTOR (human) was incubated with 50 mM HEPES pH 7.5, 1 mM EGTA, 0.01% Tween 20, 2 mg/ml of the substrate, 3 mM MnCl2 and [γ-^33P-ATP] (specific activity approximately 500 cpm/pmol, concentration as necessary). The reaction was initiated by addition of MgATP solution. After incubation at room temperature for 40 minutes, the reaction was stopped by addition of 3% phosphoric acid. 10 μl of the reaction solution were then transferred dropwise onto a P30 filtermat and washed three times for 5 min in 75 mM phosphoric acid and once in methanol, dried and evaluated by means of liquid scintillation counting.

PI3K p110α/p85α (human) = PI3K p110α/p85α (human) (Homo sapiens (Human), UniProt P42336); experiment: PI3K p110α/p85α (human), non-radioactive assay (HTRF); type: biochemical; conditions: for IC50: read-out: IC50 (PI3Kalpha); for ratio IC50 (ATM) vs PI3Kalpha, selectivity with respect to PI3Kalpha: as printed:
Method: PI3K p110α/p85α (Human), Non-radioactive Assay
as §1, with “p110α/p85α” for “p110δ/p85α”, “After” for “After an”, “incubation” for “incubation time of 30 min”, “temperature for 40 minutes,” for “temperature,”

[2] = system: phosphorylation of CHK2 (phospho-Thr68) in HCT116 cells; experiment: Cellular pCHK2 assay: bleomycin-induced phosphorylation of CHK2 (phospho-Thr68), immunofluorescence high-content analysis; type: cell-based, human; conditions: Homo sapiens, HCT-116, 4 h, read-out: IC50 (pCHK2)
How it was run: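 HCT116 cells in DMEM with 10% FCS, incubated overnight at 37° C, then given compounds (1 nM to 30 μM, 0.5% DMSO) together with 10 μM bleomycin. Phospho-Thr68 CHK2 immunostained and imaged by high-content imager; nuclei with pCHK2 above background counted, cell count from propidium iodide DNA stain.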

PI3K p110β/p85α (human) = PI3K p110β/p85α (human) (Homo sapiens (Human), UniProt P42338); experiment: PI3K p110β/p85α (human), non-radioactive assay (HTRF); type: biochemical; conditions: for IC50: read-out: IC50 (PI3Kbeta); for fold selectivity for ATM over PI3Kbeta (IC50 PI3Kbeta / IC50 ATM): IC50 (ATM) at least 2000 times higher compared with IC50 (PI3Kbeta)
Method: PI3K p110β/p85α (Human), Non-radioactive Assay
as §1, with “p110β/p85α” for “p110δ/p85α”

Sequence of PI3K p110α/p85α (human) (P42336 whole entry): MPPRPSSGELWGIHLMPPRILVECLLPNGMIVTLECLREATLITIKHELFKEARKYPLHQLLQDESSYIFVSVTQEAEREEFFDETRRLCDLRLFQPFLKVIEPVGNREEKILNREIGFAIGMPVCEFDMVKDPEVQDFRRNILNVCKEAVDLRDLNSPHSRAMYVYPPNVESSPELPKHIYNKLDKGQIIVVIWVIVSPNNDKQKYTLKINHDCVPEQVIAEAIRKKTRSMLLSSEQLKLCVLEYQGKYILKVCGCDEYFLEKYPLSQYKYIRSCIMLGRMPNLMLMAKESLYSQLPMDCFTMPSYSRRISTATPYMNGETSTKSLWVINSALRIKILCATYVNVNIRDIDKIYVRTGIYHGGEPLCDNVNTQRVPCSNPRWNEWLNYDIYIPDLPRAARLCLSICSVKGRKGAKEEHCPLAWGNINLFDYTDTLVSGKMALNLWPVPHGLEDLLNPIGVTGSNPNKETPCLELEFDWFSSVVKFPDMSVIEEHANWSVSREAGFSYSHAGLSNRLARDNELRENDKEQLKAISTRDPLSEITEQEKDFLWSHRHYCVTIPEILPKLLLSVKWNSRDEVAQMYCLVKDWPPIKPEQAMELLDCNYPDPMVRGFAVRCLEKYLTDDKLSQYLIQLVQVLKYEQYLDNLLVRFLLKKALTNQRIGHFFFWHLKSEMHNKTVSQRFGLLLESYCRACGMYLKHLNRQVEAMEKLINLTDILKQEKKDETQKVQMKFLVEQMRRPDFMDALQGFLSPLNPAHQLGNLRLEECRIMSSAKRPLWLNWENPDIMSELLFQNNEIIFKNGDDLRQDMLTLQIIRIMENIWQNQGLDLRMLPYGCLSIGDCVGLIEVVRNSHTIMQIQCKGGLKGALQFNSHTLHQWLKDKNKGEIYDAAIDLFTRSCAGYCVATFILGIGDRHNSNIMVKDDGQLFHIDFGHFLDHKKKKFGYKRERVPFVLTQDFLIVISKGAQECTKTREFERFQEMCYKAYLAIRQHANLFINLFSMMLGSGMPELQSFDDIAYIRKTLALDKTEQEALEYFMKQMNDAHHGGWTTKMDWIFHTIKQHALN
Sequence of PI3K p110α/p85α (human) (P27986 whole entry partner): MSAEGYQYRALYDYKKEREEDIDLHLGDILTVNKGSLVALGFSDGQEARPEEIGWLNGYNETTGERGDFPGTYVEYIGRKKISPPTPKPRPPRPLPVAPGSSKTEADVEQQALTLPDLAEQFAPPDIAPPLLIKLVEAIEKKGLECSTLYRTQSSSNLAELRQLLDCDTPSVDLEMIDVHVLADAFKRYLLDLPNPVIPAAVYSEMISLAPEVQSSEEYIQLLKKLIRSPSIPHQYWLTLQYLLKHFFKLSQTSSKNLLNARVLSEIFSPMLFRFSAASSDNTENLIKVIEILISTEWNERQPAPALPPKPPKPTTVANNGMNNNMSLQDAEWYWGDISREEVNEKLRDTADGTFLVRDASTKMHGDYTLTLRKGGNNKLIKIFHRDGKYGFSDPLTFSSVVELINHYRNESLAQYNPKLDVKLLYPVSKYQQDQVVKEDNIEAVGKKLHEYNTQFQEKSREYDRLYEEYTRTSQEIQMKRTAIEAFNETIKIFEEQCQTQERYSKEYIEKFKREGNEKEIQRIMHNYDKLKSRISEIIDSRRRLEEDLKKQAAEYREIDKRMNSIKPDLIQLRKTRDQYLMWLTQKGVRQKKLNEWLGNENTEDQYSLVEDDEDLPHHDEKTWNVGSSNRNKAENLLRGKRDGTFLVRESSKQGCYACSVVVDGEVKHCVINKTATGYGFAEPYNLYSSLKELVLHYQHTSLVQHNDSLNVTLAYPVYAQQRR
Sequence of purified human recombinant ATM (ataxia telangiectasia mutated), full length (Q13315 whole entry, change not shown): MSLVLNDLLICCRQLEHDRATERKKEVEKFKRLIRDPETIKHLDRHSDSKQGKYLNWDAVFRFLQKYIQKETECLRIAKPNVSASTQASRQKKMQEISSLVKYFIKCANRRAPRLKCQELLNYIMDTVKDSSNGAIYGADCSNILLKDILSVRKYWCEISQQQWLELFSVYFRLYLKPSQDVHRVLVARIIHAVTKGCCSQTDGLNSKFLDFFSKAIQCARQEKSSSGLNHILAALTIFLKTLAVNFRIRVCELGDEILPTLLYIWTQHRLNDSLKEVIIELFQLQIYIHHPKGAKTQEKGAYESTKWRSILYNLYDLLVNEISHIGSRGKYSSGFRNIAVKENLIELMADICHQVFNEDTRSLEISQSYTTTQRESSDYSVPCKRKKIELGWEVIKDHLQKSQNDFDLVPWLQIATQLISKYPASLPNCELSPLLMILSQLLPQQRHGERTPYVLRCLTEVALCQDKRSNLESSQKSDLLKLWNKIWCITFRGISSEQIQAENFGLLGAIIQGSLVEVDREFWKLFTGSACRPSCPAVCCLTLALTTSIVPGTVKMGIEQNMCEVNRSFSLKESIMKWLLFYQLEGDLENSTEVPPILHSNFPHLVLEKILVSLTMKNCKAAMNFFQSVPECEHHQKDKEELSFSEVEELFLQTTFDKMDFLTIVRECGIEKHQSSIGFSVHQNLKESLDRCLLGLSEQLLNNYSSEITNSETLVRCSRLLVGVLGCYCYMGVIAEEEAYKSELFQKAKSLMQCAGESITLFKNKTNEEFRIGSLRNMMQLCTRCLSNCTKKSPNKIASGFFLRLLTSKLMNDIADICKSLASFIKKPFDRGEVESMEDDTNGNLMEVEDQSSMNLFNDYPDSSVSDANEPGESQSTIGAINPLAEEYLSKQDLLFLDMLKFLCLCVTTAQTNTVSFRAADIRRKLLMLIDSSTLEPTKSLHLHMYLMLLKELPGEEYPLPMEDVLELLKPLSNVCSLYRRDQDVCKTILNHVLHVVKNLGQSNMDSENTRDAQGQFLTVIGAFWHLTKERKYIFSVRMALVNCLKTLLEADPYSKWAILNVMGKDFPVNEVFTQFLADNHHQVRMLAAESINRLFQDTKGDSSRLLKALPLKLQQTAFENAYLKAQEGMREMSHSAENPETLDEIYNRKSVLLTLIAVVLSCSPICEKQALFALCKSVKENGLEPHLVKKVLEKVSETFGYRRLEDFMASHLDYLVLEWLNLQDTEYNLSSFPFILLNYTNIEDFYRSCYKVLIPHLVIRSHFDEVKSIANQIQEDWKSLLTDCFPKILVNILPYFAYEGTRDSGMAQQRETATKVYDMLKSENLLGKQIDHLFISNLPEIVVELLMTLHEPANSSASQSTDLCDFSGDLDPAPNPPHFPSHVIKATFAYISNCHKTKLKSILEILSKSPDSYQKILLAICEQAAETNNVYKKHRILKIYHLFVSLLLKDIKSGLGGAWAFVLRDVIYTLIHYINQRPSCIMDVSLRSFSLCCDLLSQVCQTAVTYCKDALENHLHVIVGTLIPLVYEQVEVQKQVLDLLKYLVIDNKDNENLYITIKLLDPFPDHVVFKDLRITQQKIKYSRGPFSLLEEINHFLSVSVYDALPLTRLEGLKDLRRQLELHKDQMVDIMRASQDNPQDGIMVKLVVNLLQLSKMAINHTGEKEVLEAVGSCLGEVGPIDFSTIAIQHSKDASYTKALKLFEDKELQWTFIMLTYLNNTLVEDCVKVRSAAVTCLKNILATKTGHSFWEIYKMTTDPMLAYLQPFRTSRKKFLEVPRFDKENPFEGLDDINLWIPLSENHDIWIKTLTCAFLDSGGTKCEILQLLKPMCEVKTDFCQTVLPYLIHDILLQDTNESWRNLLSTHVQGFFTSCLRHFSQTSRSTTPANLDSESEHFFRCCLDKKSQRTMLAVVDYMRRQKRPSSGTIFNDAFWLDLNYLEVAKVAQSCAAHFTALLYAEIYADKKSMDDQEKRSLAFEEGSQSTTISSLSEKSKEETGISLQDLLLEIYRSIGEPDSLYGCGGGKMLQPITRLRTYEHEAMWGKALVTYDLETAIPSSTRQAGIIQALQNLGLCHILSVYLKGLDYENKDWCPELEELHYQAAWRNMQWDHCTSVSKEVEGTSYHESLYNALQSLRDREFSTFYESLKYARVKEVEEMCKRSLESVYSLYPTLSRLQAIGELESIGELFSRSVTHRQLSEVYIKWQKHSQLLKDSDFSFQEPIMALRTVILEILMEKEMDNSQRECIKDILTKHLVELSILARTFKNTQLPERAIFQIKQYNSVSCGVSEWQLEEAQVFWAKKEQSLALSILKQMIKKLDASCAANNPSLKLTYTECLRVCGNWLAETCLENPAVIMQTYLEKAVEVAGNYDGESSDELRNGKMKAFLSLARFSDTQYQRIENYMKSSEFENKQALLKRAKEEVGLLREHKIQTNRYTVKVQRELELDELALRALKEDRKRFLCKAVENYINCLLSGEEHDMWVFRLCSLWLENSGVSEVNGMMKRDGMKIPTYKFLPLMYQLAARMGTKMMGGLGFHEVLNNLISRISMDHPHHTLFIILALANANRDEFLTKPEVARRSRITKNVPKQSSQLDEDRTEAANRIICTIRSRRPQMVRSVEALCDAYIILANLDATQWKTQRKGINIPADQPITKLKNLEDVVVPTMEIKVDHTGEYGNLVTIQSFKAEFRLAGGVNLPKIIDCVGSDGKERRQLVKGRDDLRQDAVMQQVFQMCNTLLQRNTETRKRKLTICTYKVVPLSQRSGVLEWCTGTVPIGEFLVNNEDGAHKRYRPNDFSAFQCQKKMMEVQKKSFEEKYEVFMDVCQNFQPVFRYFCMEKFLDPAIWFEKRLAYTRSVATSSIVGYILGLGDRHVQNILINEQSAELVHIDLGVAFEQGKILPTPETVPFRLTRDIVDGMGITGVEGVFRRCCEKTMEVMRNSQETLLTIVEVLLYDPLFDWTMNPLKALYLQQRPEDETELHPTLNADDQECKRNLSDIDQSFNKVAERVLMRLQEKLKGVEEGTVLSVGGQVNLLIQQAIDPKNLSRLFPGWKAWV

SMILES | IC50 [1] [nM] | IC50 ([1]; 10 μM ATP, substrate p53) [nM] | IC50 (PI3K p110δ/p85α (human)) [nM] | IC50 (PI3K (p120γ) (human)) [nM] | IC50 (mTOR (human)) [nM] | IC50 (PI3K p110α/p85α (human)) [nM] | IC50 [2] [nM] | IC50 (PI3K p110β/p85α (human)) [nM] | ratio IC50 (ATM) vs PI3Kdelta, selectivity with respect to PI3Kdelta (PI3K p110δ/p85α (human)) | ratio IC50 (ATM) vs PI3Kgamma, selectivity with respect to PI3Kgamma (PI3K (p120γ) (human)) | ratio IC50 (ATM) vs PI3Kalpha, selectivity with respect to PI3Kalpha (PI3K p110α/p85α (human)) | fold selectivity for ATM over PI3Kbeta (IC50 PI3Kbeta / IC50 ATM) (PI3K p110β/p85α (human)) | ratio IC50 (ATM) : IC50 (mTOR), selectivity with respect to mTOR (mTOR (human))
COc1cc2ncc3c(c2cc1-c1cnn(C)c1)n(-c1ncc(F)cc1F)c(=O)n3C [Compound Example 1, 1-(3,5-Difluoropyridin-2-yl)-7-methoxy-3-methyl-8-(l-methyl-1H-pyrazol-4-yl)-1,3-dihydroimidazo[4,5-c] quinolin-2-one] | < 10 | < 10 | > 30000 | > 30000 | > 30000 | > 30000 | < 200 | > 30000 | – | – | – | – | –
COc1cc2ncc3c(c2cc1-c1cn[nH]c1)n(-c1c(F)cncc1F)c(=O)n3C [Compound Example 2, 1-(3,5-Difluoropyridin-4-yl)-7-methoxy-3-methyl-8-(1H-pyrazol-4-yl)-1,3-dihydro-imidazo[4,5-c]quinolin-2-one] | < 1 | < 1 | > 30000 | > 30000 | > 5000 | > 30000 | < 200 | > 30000 | – | – | – | – | –
COc1cc2ncc3c(c2cc1-c1cn(C)nc1C)n(-c1c(F)cncc1OC)c(=O)n3C [Compound Example 4, 8-(1,3-Dimethyl-1H-pyrazol-4-yl)-1-(3-fluoro-5-methoxy-pyridin-4-yl)-7-methoxy-3-methyl-1,3-dihydroimidazo-[4,5-c]quinolin-2-one] | – | – | > 10000 | > 30000 | > 30000 | > 5000 | < 200 | > 30000 | – | – | – | – | –
COc1cc2ncc3c(c2cc1-c1cnn(C)c1)n(-c1cn(C)nc1C)c(=O)n3C [Compound Example 5, 1-(1,3-Dimethyl-1H-pyrazol-4-yl)-7-methoxy-3-methyl-8-(1-methyl-1H-pyrazol-4-yl)-1,3-dihydroimidazo[4,5-c]-quinolin-2-one] | < 1 | < 1 | > 30000 | > 30000 | > 30000 | > 30000 | < 200 | > 30000 | – | – | – | – | –
COc1cc2ncc3c(c2cc1-c1cn[nH]c1)n(-c1ncccc1F)c(=O)n3C [Compound Example 7, 1-(3-Fluoropyridin-2-yl)-7-methoxy-3-methyl-8-(1H-pyrazol-4-yl)-1,3-dihydro-imidazo[4,5-c]quinolin-2-one] | < 1 | < 1 | > 30000 | > 30000 | > 30000 | > 30000 | < 200 | > 30000 | – | – | – | – | –
COc1cc2ncc3[nH]c(=O)n(-c4ncc(F)cc4F)c3c2cc1-c1cn(C)nc1C [compound 108, 1-(3,5-Difluoropyridin-2-yl)-8-(1,3-dimethyl-1H-pyrazol-4-yl)-7-methoxy-1,3-dihydroimidazo[4,5-c]-quinolin-2-one] | – | < 1 | – | – | – | – | 200 to 1000 | – | at least 2000 times | at least 2000 times | at least 2000 times | at least 2000 times | –
COc1cc2ncc3c(c2cc1-c1cnn(C)c1)n(-c1c(C)n[nH]c1C)c(=O)n3C [compound 118, 1-(3,5-Dimethyl-1H-pyrazol-4-yl)-7-methoxy-3-methyl-8-(1-methyl-1H-pyrazol-4-yl)-1,3-dihydroimidazo[4,5-c]-quinolin-2-one] | – | < 10 | – | – | – | – | 200 to 1000 | – | – | – | – | at least 2000 times | at least 2000 times
CCc1cncc(F)c1-n1c(=O)n(C)c2cnc3cc(OC)c(-c4cn[nH]n4)cc3c21 [compound 125, 1-(3-Ethyl-5-fluoropyridin-4-yl)-7-methoxy-3-methyl-8-(2H-1,2,3-triazol-4-yl)-1,3-dihydroimidazo[4,5-c] quinolin-2-one] | – | < 1 | – | – | – | – | 200 to 1000 | – | at least 2000 times | at least 2000 times | at least 2000 times | at least 2000 times | –
COc1cc2ncc3c(c2cc1-c1ccc2nc(C)[nH]c2c1)n(-c1c(F)cncc1OC)c(=O)n3C [compound 136, 1-(3-Fluoro-5-methoxy-pyridin-4-yl)-7-methoxy-3-methyl-8-(2-methyl-3H-benzoimidazol-5-yl)-1,3-dihydroimidazo[4,5-c]-quinolin-2-one] | – | < 1 | – | – | – | – | < 200 | – | – | at least 2000 times | – | at least 2000 times | –
[2H]C([2H])([2H])Oc1cncc(F)c1-n1c(=O)n(C)c2cnc3cc(OC)c(-c4cnn(C)c4)cc3c21 [compound 145, 1-[3-Fluoro-5-(trideuterio-methoxy)-4-pyridyl]-7-methoxy-3-methyl-8-(1-methylpyrazol-4-yl)imidazo-[4,5-c]quinolin-2-one] | – | < 1 | – | – | – | – | 200 to 1000 | – | at least 2000 times | at least 2000 times | – | at least 2000 times | at least 2000 times
COc1cc2ncc3c(c2cc1-c1cnn(C)c1)n(-c1ncc(OCS(C)(=O)=O)cc1F)c(=O)n3C [compound 201, 1-(3-Fluoro-5-methyl-sulfonylmethoxypyridin-2-yl)-7-methoxy-3-methyl-8-(1-methyl-1H-pyrazol-4-yl)-1,3-dihydroimidazo[4,5-c]-quinolin-2-one] | – | < 1 | – | – | – | – | < 200 | – | at least 2000 times | at least 2000 times | at least 2000 times | at least 2000 times | –
